Data from article PMC10018501 (ACS Omega, 2023).
Several values for one entry are separate records, joined by “and”; a condition that tells them apart may be missing. Equal values may be shown once. Read-outs that look alike come from different tables or passages of the source.

Columns and labels:
[1] = biological target: T1, hAChE (Homo sapiens, UniProt P22303); experiment: hAChE enzyme kinetics; assay type: biochemical; details: substrate ATCI
[2] = system: differentiated SH-SY5Y cells; experiment: Neurotoxicity estimation; assay type: cell-based; details: 10, 20, 40 and 80 μM, 24 h
[3] = biological target: Aβ1–42 (Homo sapiens, UniProt P05067); experiment: Self-induced Aβ aggregation inhibition thioflavin T assay; assay type: biochemical; details: compound 5, 10 and 20 μM; Aβ 10 μM
[4] = system: acetylcholine (ACh); experiment: Ex vivo ACh estimation; assay type: in vivo, rat; details: scopolamine-treated rats; SD-6 2.5, 5, 10 mg/kg
[5] = biological target: Aβ1–42 with hAChE (Homo sapiens, UniProt P22303); experiment: hAChE-induced Aβ aggregation inhibition thioflavin T assay; assay type: biochemical; details: compound 5, 10 and 20 μM; Aβ 10 μM
[6] = system: scopolamine-induced rat model; experiment: Scopolamine-induced Y-maze test; assay type: in vivo, Wistar rats; details: SD-6 2.5, 5, 10 mg/kg p.o.; donepezil 5 mg/kg p.o.; 7 days; vs scopolamine group
[7] = in vitro; details: PAMPA, pH 7.4
[8] = n = 3, mean ± SEM
[9] = system: female Wistar rats; experiment: Acute oral toxicity study; assay type: in vivo
[10] = biological target: hBACE-1 (Homo sapiens, UniProt P56817); experiment: biochemical
[11] = system: hippocampal brain (dentate gyrus) neurons; experiment: Brain tissue histopathology; assay type: in vivo, rat; details: Aβ1–42 rats, SD-6 10 mg/kg, donepezil 5 mg/kg
[12] = system: catalase; experiment: Ex vivo catalase assay; assay type: in vivo, rat; details: scopolamine-treated rats; SD-6 2.5, 5, 10 mg/kg; donepezil 5 mg/kg
[13] = system: malonaldehyde (MDA); experiment: Ex vivo MDA estimation; assay type: in vivo, rat; details: scopolamine-treated rats; SD-6 2.5, 5, 10 mg/kg; donepezil 5 mg/kg
[14] = system: AChE; experiment: Ex vivo AChE estimation in hippocampal homogenate; set-up: species or system rat; details: scopolamine-treated rats; SD-6 2.5, 5, 10 mg/kg
[15] = biological target: hBChE (Equus caballus, UniProt P81908); experiment: In vitro hBChE inhibition assay; assay type: biochemical, human
[16] = system: ICV Aβ1–42-induced rat model; experiment: Aβ-induced Morris water maze test; details: SD-6 10 mg/kg, donepezil 5 mg/kg, orally 9 days; vs Aβ group
[17] = system: superoxide dismutase (SOD); experiment: Ex vivo SOD assay; assay type: in vivo, rat; details: scopolamine-treated rats; SD-6 2.5, 5, 10 mg/kg; donepezil 5 mg/kg
[18] = biological target: T1, hAChE; experiment: In vitro hAChE inhibition assay; assay type: biochemical; details: for selectivity index hBChE/hAChE: IC50 of hBChE/IC50 of hAChE
[19] = biological target: PAS-AChE (hAChE-PAS region) (Homo sapiens, UniProt P22303); experiment: Propidium iodide displacement assay; assay type: binding
[20] = system: glutathione (GSH); experiment: Ex vivo reduced glutathione; assay type: in vivo, rat; details: scopolamine-treated rats; SD-6 2.5, 5, 10 mg/kg; donepezil 5 mg/kg
[21] = system: nondifferentiated SH-SY5Y cells; experiment: Neuroprotective estimation; assay type: cell-based; details: Homo sapiens, 24 h, read-out: cell viability
[22] = hAChE inhibitory activity (good/moderate/poor), class in words

PAS-AChE (hAChE-PAS region), sequence (P22303 32-617 isoform P22303-2 limits assumed): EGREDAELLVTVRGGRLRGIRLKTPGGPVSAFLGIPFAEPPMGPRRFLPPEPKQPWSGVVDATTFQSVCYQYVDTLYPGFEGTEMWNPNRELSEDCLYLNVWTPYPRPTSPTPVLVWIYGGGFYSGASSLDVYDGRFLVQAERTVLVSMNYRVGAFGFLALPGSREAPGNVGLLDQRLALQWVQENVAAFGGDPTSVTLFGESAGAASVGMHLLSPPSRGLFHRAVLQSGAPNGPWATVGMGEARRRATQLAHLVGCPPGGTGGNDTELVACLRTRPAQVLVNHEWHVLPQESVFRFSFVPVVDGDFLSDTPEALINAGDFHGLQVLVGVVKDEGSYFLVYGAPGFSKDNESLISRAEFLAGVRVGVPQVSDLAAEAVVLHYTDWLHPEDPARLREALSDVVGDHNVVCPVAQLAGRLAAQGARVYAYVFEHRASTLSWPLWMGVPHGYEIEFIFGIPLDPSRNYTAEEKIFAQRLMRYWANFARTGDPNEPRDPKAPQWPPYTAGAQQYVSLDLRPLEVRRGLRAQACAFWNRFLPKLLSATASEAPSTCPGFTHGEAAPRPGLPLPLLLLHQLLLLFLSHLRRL
T1 sequence (P22303 32-617 isoform P22303-2 limits assumed): as above
Aβ1–42, sequence (P05067 672-713): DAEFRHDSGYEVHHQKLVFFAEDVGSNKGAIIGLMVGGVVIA
hBACE-1, sequence (P56817 46-501): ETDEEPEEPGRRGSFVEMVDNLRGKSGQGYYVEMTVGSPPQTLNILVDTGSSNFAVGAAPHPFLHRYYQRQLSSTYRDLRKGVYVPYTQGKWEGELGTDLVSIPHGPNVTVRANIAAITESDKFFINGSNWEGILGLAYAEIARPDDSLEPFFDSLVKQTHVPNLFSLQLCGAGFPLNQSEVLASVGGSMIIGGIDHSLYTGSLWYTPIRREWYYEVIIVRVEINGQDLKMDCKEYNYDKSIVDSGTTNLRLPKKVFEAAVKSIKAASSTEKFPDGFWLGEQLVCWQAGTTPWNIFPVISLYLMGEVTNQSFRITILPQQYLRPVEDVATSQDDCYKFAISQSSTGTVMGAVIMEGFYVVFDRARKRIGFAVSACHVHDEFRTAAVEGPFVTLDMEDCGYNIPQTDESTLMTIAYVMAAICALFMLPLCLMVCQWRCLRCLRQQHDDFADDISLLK
hBChE, sequence (P81908 whole entry): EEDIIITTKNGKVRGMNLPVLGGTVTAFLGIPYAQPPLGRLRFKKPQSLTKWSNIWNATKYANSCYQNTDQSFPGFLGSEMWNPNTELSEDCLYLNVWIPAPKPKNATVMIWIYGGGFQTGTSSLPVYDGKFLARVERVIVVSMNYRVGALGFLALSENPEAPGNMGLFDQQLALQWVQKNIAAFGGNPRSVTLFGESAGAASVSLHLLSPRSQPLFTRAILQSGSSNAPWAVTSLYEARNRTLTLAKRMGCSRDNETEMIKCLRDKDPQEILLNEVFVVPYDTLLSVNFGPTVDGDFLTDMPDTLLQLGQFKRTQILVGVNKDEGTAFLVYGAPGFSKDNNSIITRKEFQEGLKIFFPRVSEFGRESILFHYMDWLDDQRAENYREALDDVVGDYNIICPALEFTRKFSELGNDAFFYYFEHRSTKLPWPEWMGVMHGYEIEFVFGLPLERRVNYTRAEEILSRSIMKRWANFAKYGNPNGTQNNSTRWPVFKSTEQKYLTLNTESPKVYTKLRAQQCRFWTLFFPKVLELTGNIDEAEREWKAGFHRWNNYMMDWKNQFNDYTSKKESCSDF
Aβ1–42 with hAChE, sequence (P22303 32-588 isoform P22303-2): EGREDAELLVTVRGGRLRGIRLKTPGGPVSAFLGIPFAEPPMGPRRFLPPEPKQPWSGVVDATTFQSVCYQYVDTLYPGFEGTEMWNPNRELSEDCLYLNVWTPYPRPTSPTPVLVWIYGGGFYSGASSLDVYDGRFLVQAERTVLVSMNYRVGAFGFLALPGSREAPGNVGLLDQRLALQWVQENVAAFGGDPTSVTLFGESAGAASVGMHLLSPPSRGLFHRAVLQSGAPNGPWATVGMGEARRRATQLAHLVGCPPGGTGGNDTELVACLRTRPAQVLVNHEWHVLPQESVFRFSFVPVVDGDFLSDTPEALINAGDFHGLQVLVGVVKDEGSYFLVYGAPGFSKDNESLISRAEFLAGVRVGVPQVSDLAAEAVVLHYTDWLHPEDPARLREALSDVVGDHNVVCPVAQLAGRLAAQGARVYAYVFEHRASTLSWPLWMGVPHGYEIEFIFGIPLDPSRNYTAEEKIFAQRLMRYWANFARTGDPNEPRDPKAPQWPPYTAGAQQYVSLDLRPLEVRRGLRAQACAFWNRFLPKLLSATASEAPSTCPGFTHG

SMILES	neurotoxicity (MTT, cell population and morphology) [2]	% Aβ aggregation inhibition, self-induced [3]	% Aβ aggregation inhibition, hAChE-induced [5]	% spontaneous alterations [6]	Papp [7]	Pe(exp) PAMPA–BBB [8]	IC50 ([10]; IC50 ± SEM hBACE-1, n = 3)	IC50 [15]	escape latency time (ELT) [16]	time spent in the platform zone [16]	total number of entries to the platform zone [16]	IC50 ([18]; IC50 ± SEM hAChE, n = 3)	IC50 [18, 22]	PAS-AChE propidium iodide displacement (%) ([19]; [I] = 10 μM)	PAS-AChE propidium iodide displacement (%) ([19]; [I] = 50 μM)	viability at 5 µM [21]	viability at 10 µM [21]	viability at 20 µM [21]	selectivity index hBChE/hAChE [18]	other results
S=c1oc(-c2ccccc2)nn1CN1CCN(Cc2ccccc2)CC1 [SD-6, 3-((4-Benzylpiperazin-1-yl)methyl)-5-phenyl-1,3,4-oxadiazole-2(3H)-thione]	non-neurotoxic	22–69%	41–81%	significant increase in % spontaneous alterations in a dose-dependent manner	5.643 ± 0.021 ×10⁻⁶ cm/s	5.643 10^–6 cm/s	0.753 ± 0.018 µM	1.58 ± 0.037 µM	significant change as compared to the Aβ group	significantly (^bp < 0.001) higher	significantly (^bp < 0.001) different from the Aβ-treated animal group	0.907 ± 0.011 µM	< 1 µM	27.3% and 27.316 ± 1.208%	56.2% and 56.238 ± 1.338%	61.4%	74%	83.6%		type of inhibition (Lineweaver–Burk plot) [1]: mixed-type noncompetitive; ACh brain level [4]: dose-dependent increase; weight loss (initial, in some animals) ([9]; 100–500 mg/kg, p.o., regained in 10–12 days): 12–25%; organ histopathology (kidney, liver, lungs, heart; H&E) ([9]; after 14 days): normal tissue appearance; hepatic and renal function tests ([9]; blood samples after acute toxicity study): within the range; neuronal morphology (dentate gyrus) [11]: less disordered neuronal arrangement and vacuolar fibrosis; neuronal density (dentate gyrus) ([11]; vs Aβ1–42-treated group): higher; catalase activity [12]: elevation of both the biomarkers; MDA level [13]: declines in MDA; AChE level (hippocampal) [14]: dose-dependent decrease; SOD level [17]: elevation of SOD levels; GSH level [20]: elevation of both the biomarkers
FC(F)(F)c1ccc(-c2nn(CN3CCN(Cc4ccccc4)CC3)c(=S)o2)cc1 [SD-8, 3-((4-Benzylpiperazin-1-yl)methyl)-5-(4-(trifluoromethyl)phenyl)-1,3,4-oxadiazole-2(3H)-thione]					5.019 ± 0.033 ×10⁻⁶ cm/s	5.019 10^–6 cm/s	0.701 ± 0.019 µM	2.42 ± 0.041 µM				1.32 ± 0.018 µM	1 to 2 µM	21.446 ± 1.147%	41.709 ± 1.271%				1.835	PAS-AChE propidium iodide displacement (%) ([19]; [I] = 10 μM, listed as SD-08): 21.4%; PAS-AChE propidium iodide displacement (%) ([19]; [I] = 50 μM, listed as SD-08): 41.7%
COc1cc2c(cc1OC)C(=O)C(CC1CCN(Cc3ccccc3)CC1)C2 (stereo not drawn) [donepezil, reference compound]		21–37%		significant (^b,c,dp < 0.001) increase					maximum decline in ELT	significantly (^bp < 0.001) higher	significantly (^bp < 0.001) different from the Aβ-treated animal group									
S=c1oc(-c2ccccc2Br)nn1CN1CCN(Cc2ccccc2)CC1 [SD-16, 3-((4-Benzylpiperazin-1-yl)methyl)-5-(2-bromophenyl)-1,3,4-oxadiazole-2(3H)-thione]							1.8 ± 0.029 µM	> 10 µM				2.41 ± 0.027 µM								IC50 [10]: 1 to 2.5 µM; hAChE inhibitory activity (good/moderate/poor) ([18]; class in words): moderate to poor
O=[N+]([O-])c1cc(-c2nn(CN3CCN(Cc4ccccc4)CC3)c(=S)o2)ccc1Cl [SD-14, 3-((4-Benzylpiperazin-1-yl)methyl)-5-(4-chloro-3-nitrophenyl)-1,3,4-oxadiazole-2(3H)-thione]					4.858 ± 0.016 ×10⁻⁶ cm/s	4.848 10^–6 cm/s	0.806 ± 0.011 µM	1.94 ± 0.033 µM				1.14 ± 0.018 µM	1 to 2 µM	19.7% and 19.773 ± 1.216%	36.8% and 36.841 ± 1.069%				1.710	
N#Cc1cccc(-c2nn(CN3CCN(Cc4ccccc4)CC3)c(=S)o2)c1 [SD-4, 3-(4-((4-Benzylpiperazin-1-yl)methyl)-5-thioxo-4,5-dihydro-1,3,4-oxadiazol-2-yl)benzonitrile]	non-neurotoxic	20–61%	38–79%		6.127 ± 0.019 ×10⁻⁶ cm/s	6.127 10^–6 cm/s	0.651 ± 0.014 µM	1.65 ± 0.019 µM				1.077 ± 0.009 µM	< 1 µM	24.6% and 24.661 ± 1.421%	55.1% and 55.157 ± 1.247%	59.1%	71.6%	82.5%	1.534	
